Laboratory results: patent US20240316055A1, “METHODS FOR TREATING LEIGH SYNDROME” (DBCC Research, LLC, priority 2023, published 2024)

Tests used:
Format in all cases: cell-based
[1] = system: ECHS1 Fibroblast cells; assay: Propionate potency screen (cell viability, DAPI nuclei count); details: for concentration-dependent curves: propionate potency screen, FIG. 4; for Propionate assay hits: 10 mM propionate medium, 96 hours, 3-fold serial dilution starting at 10 uM, Z-score >2
Description: The suspension was centrifuged at 200x g for 5 min. The suspension was discarded and the pellet was resuspended in the 10 mM propionate medium (DMEM+10% FBS+10 mM sodium propionate) and seeded at 750 cells/well (50 μL) into the compound wells (1 μM and 10 μM). For the positive control experiment, the cells were suspended in 10 mM propionate medium +5.5 mM glucose +0.01% DMSO and seeded at 750 cells/well (50 μL) into the blank wells. For the negative control experiment, the cells were suspended in the 10 mM propionate medium +0.01% DMSO and seeded at 750 cells/well (50 μL) into the blank wells. […] The plates were then washed 3x with 50 uL/well of PBS. The cells were stained with 25 μL/well of a solution DAPI and left at room temperature for 1 hr. The plates were then washed 3x with 50 uL/well of PBS prior to imaging. Agilent BioTek EL406 Microplate Washer Dispenser was used for the cell fixation and staining protocol. The plates were imaged using GE InCell2200 Cell Analyzer using PerkinElmer Columbus software quantification protocol. The data was analyzed using Genedata, Vortex, and Abase software. A Z-score value of >2 was used for both the Prestwick/Selleck and SPECS library (based on the negative control population) to determine hit selection.
ECHS1 Fibroblast cells were harvested at 70-80% confluent with trypsin and suspended in DMEM+10% FBS. The suspension was centrifuged at 200x g for 5 min. The suspension was discarded and the pellet was resuspended in the either the 5.5 mM galactose medium (DMEM+10% FBS+5.5 mM of galactose) or the 10 mM propionate medium (DMEM+10% FBS+10 mM sodium propionate). […] For the positive control experiment, the cells were suspended in either the 5.5 mM galactose medium or 10 mM propionate medium+5.5 mM glucose+0.01% DMSO and seeded at 750 cells/well (50 μL) into the blank wells. For the negative control experiment, the cells were suspended in the 5.5 mM galactose or 10 mM propionate medium +0.01% DMSO and seeded at 750 cells/well (50 μL) into the blank wells. […] The plates were then washed 3x with 50 μL/well of PBS. The cells were stained with 25 μL/well of a solution of DAPI and left at room temperature for 1 hr. The plates were then washed 3x with 50 μL/well of PBS prior to imaging. Agilent BioTek EL406 Microplate Washer Dispenser was used for the cell fixation and staining protocol. The plates were imaged using GE InCell2200 Cell Analyzer using PerkinElmer Columbus software quantification protocol. The data was analyzed using Genedata, Vortex, and Abase software. A Z-score value of >2 was used for both the Prestwick/Selleck and SPECS library (based on the negative control population) to determine hit selection.

[2] = system: ECHS1 Fibroblast cells; assay: Galactose potency screen (cell viability, DAPI nuclei count); details: for Galactose assay hits: 5.5 mM galactose medium, 96 hours, 3-fold serial dilution starting at 10 uM, Z-score >2
Description: Galactose Screen: Compound library plates were obtained from Prestwick/Selleck and SPECS (7,591 compounds total, 27 compounds/plate/concentration at 1 μM and 10 μM, 384-well plates). ECHS1 Fibroblast cells were harvested at 95% confluent with trypsin and suspended in Dulbecco's Modified Eagle Medium (DMEM)+10% Fetal Bovine Serum (FBS). The suspension was centrifuged at 200x g for 5 min. The suspension was discarded and the pellet was resuspended in the 5.5 mM galactose medium (DMEM+10% FBS+5.5 mM galactose) and seeded at 750 cells/well (50 μL) into the compound wells (1 μM and 10 μM). For the positive control experiment, the cells were suspended in 5.5 mM galactose medium+5.5 mM glucose+0.01% DMSO and seeded at 750 cells/well (50 μL) into the blank wells. For the negative control experiment, the cells were suspended in the 5.5 mM galactose medium+0.01% DMSO and seeded at 750 cells/well (50 μL) into the blank wells. The seeded plates were incubated at 37° C. for 96 hours, then 15 μL/well of 16% paraformaldehyde solution was added to the plates and allowed to sit for 15 min to fix the cells. The plates were then washed 3x with 50 μL/well of phosphate-buffered saline (PBS). The cells were stained with […] of a solution of 4,6-diamidino-2-phenylindole dilactate (DAPI, Invitrogen) and left at room temperature for 1 hr. The plates were then washed 3x with 50 μL/well of PBS prior to imaging. Agilent BioTek EL406 Microplate Washer Dispenser was used for the cell fixation and staining protocol. The plates were imaged using GE InCell2200 Cell Analyzer using PerkinElmer Columbus software quantification protocol. The data was analyzed using Genedata, Vortex, and Abase software. A Z-score value of >2 was used for the Prestwick/Selleck compound library and >3 for the SPECS library (based on the negative control population) to determine hit selection.
ECHS1 Fibroblast cells were harvested at 70-80% confluent with trypsin and suspended in DMEM+10% FBS. The suspension was centrifuged at 200x g for 5 min. The suspension was discarded and the pellet was resuspended in the either the 5.5 mM galactose medium (DMEM+10% FBS+5.5 mM of galactose) or the 10 mM propionate medium (DMEM+10% FBS+10 mM sodium propionate). The cells were seeded at 750 cells/well (50 μL) into a 384-well plate containing the test compounds (3-fold serial dilution across 10 plates, starting at 10 uM). For the positive control experiment, the cells were suspended in either the 5.5 mM galactose medium or 10 mM propionate medium+5.5 mM glucose+0.01% DMSO and seeded at 750 cells/well (50 μL) into the blank wells. For the negative control experiment, the cells were suspended in the 5.5 mM galactose or 10 mM propionate medium +0.01% DMSO and seeded at 750 cells/well (50 μL) into the blank wells. The seeded plates were incubated at 37° C. for 96 hours, then 15 μL/well of 16% paraformaldehyde solution was added to the plates and allowed to sit for 15 min to fix the cells. The plates were then washed 3x with 50 μL/well of PBS. The cells were stained with 25 μL/well of a solution of DAPI and left at room temperature for 1 hr. The plates were then washed 3x with 50 μL/well of PBS prior to imaging. Agilent BioTek EL406 Microplate Washer Dispenser was used for the cell fixation and staining protocol. The plates were imaged using GE InCell2200 Cell Analyzer using PerkinElmer Columbus software quantification protocol. The data was analyzed using Genedata, Vortex, and Abase software. A Z-score value of >2 was used for both the Prestwick/Selleck and SPECS library (based on the negative control population) to determine hit selection.

[3] = system: ECHS1 patient-derived fibroblasts; assay: Mitochondrial respiration assay (Seahorse); details: 48 hours; for respiration: glucose or galactose conditions, 1, 5 or 10 μM
Description: To assess the mechanism of action of hit compounds from the screens of previous Examples, which were based on rescue of viability after metabolic challenge, Seahorse assay was used to measure mitochondrial function in response to treatment at multiple concentrations. The Seahorse assay measures the following parameters: oxygen consumption; basal respiration rate; ATP-linked respiration; maximal respiration; reserve capacity; and ATP production rate. At baseline (no treatment), the ECHS1 patient-derived fibroblasts had lower respiration rates than the control fibroblasts in glucose culturing conditions (20% reduction) and in galactose culturing conditions (30% reduction).
ECHS1 patient-derived fibroblasts and age-matched and sex-matched control fibroblasts were initially grown in standard media (DMEM+2 mM glutamine+1 mM pyruvate) containing 10 mM glucose as the energy source. Cells were seeded into specialized 96-well plates at a density of 10,000 cells per well. One day after plating, cells were treated with the test compounds at the concentrations of 0, 1, 5, or 10 μM. Half of the samples were cultured in 10 mM glucose media in addition to the test compounds. The remaining half of the sample were cultured in 10 mM galactose media, which is a metabolic challenge, in addition to the test compound. Test compounds were incubated with cells for 48 hours. According to the standard Seahorse protocol, the following stressors were added to cells in sequential order: 2 μM oligomycin; 5 μM carbonyl cyanide-4-(trifluoromethoxy)phenylhydrazone (FCCP); 9 μM FCCP; 2 μM rotenone and 2 μM antimycin A. Data were normalized to cell number per well using a Hoechst stain for cell nuclei. Two rounds of experiments were conducted. The results were consistent between the two rounds.

Row | Structure (SMILES) | concentration-dependent curves [1] | Galactose assay hits [2] | Propionate assay hits [1] | further results
1 | CCCCOc1c(C(=O)c2c(F)cc(C)cc2F)cnc2n[nH]cc12 [BMS-265246, (4-butoxy-2H-pyrazolo[3,4-b]pyridin-5-yl)-(2,6-difluoro-4-methylphenyl)methanone] | non-linear response | – | – | –
2 | COc1ccc(-n2c(C)c([N+](=O)[O-])c3ccc(O)cc32)cc1 [ID-8, 1-(4-methoxyphenyl)-2-methyl-3-nitroindol-6-ol] | non-linear response | – | – | –
3 | Cc1cccc(-c2n[nH]cc2-c2ccc3ncccc3n2)n1 [RepSox, 2-[5-(6-methylpyridin-2-yl)-1H-pyrazol-4-yl]-1,5-naphthyridine] | – | hits | hits | respiration [3]: did not result in major changes
4 | COc1nccc(-c2c(-c3ccc(F)cc3)ncn2[C@H]2CC[C@H](O)CC2)n1 [SB-239063, 4-[4-(4-fluorophenyl)-5-(2-methoxypyrimidin-4-yl)imidazol-1-yl]cyclohexan-1-ol] | – | – | – | nuclei count ([2]; galactose assay, FIG. 1): concentration-dependent increase; concentration-dependent curves ([2]; galactose potency screen, FIG. 2): non-linear response
5 | CNC(C)C(=O)NC1CCCCC2CCC(C(=O)NC(c3ccccc3)c3cn(CCCCc4ccc(CCCCn5cc(C(NC(=O)C6CCC7CCCCC(NC(=O)C(C)NC)C(=O)N76)c6ccccc6)nn5)cc4)nn3)N2C1=O [SM-164, (3S,6S, 10aS)-N-[(S)-[1-[4-[4-[4-[4-[(S)-[[(3S,6S,10aS)-6-[[(2S)-2-(methylamino)propanoyl]amino]-5-oxo-2,3,6,7,8,9,10,10a-octahydro-1H-pyrrolo[1,2-a]azocine-3-carbonyl]amino]-phenylmethyl]triazol-1-yl]butyl]phenyl]butyl]triazol-4-yl]-phenylmethyl]-6-[(2S)-2-(methylamino)propanoyl]amino]-5-oxo-2,3,6,7,8,9,10,10a-octahydro-1H-pyrrolo[1,2-a]azocine-3-carboxamide] | non-linear response | – | – | –
6 | Fc1ccc(-c2nc(-c3c(F)cccc3F)[nH]c2-c2ccncc2)cc1 [TA-01, 4-[2-(2,6-difluorophenyl)-4-(4-fluorophenyl)-1H-imidazol-5-yl]pyridine] | – | hits | hits | –
7 | CCC(=O)Nc1cccc(Oc2nc(Nc3ccc(N4CCN(C)CC4)cc3OC)ncc2Cl)c1 [WZ4003, N-[3-[5-chloro-2-[2-methoxy-4-(4-methylpiperazin-1-yl)anilino]pyrimidin-4-yl]oxyphenyl]propanamide] | non-linear response | – | – | nuclei count ([1]; propionate assay, FIG. 3): concentration-dependent increase
8 | CCOC(=O)C1=C(C)NC(C)=C(C(=O)OC)C1c1cccc(Cl)c1Cl (stereo not shown) [felodipine, 5-O-ethyl 3-O-methyl 4-(2,3-dichlorophenyl)-2,6-dimethyl-1,4-dihydropyridine-3,5-dicarboxylate] | – | – | – | ATP production from glycolysis [3]: increased; basal and maximal respiration [3]: decreased; respiration [3]: did not result in major changes
9 | Cc1ccc(-n2nc(C(C)(C)C)cc2NC(=O)NCc2cc(F)ccc2Oc2ccc3c(cnn3CCO)c2)cc1 [pexmetinib] | non-linear response | hits | hits | increase in cell number per well ([3]; 1 μM, both galactose and glucose cultured plates): 14%; total ATP production ([3]; most pronounced in the 1-5 μM range): some recovery; maximal respiration ([3]; galactose-treated cells): less pronounced; maximal respiration ([3]; glucose-treated cells): increased to similar levels to the control cells
